Laboratory results reported in US7829662B2, “Method of treating apoptosis and compositions thereof” (Dana Farber Cancer Institute, Inc., priority 2001, dated 2010).
Entries after “also recorded” stand apart in the source; their conditions may differ.

Assays:
mitochondria [1] = test: Cytochrome c release from isolated liver mitochondria (immunoblot densitometry or ELISA); type: biochemical, Balb/cJ mice
Experimental: Mitochondria were isolated from liver of Balb/cJ mice by standard differential centrifugation, and resuspended in isolation buffer (IB) (0.2 M sucrose, 10 mM Tris-MOPS pH 7.4, 0.1 mM EGTA-Tris, 0.1% delipidated BSA).
At the indicated time, mitochondria were pelleted by centrifugation at 12000×g at 4° C. for 3 min, and resuspended in the same volume of EB. Cytochrome c release was determined either by densitometry (Stratagene Eagle Eye II, BioRad) of immunoblots, or by rat/mouse specific ELISA performed on mitochondrial pellet and supernatant diluted 1:20 in PBS containing 0.5% Triton X-100 (R&D systems, MN). Cytochrome c is reported as the percentage of the supernatant over the total (pellet plus supernatant).
For SDS-PAGE, 20 μg of mitochondrial protein was loaded in each lane of a 12% NuPAGE (NoVex, CA) gel. After separation, proteins were transferred onto PVDF membranes (Immobilon-P, Millipore, Calif.) and membranes were probed as indicated with the following primary antibodies: anti-cytochrome c (Pharmingen, CA, 1:1000); anti-BID (1:1500); anti-BAK (Calbiochem, CA, 1:1000). HRPO-conjugated secondary antibodies (CalTag, CA, 1:2000) were visualized by chemiluminescence (Amersham, N.J.).
(§1) Mitochondria were incubated with increasing amounts of digitonin to assess how much cytochrome c was released from IMS by the selective solubilization of the OM (Hoppel and Cooper, 107, 367-375, 1968). To monitor interaction of digitonin with the […], uncoupled respiration in the presence of excess exogenous cytochrome c was assessed. Specifically 0.5 mg/ml mitochondria was incubated in EB with the indicated concentration of digitonin. After 5 minutes, mitochondria were centrifuged and cytochrome c content in the resulting pellet and supernatant were determined as described. Uncoupled JO2, uncoupled respiratory rate was recorded in parallel experiments. After 5 minutes of incubation with the indicated concentration of digitonin, mitochondria were treated with 400 pmol CCCP×mg protein-1 in the presence of 10 nmol cytochrome c×mg protein.

mitochondria [2] = test: Uncoupled respiration (JO2) of digitonin-treated mitochondria; type: biochemical, Balb/cJ mice; details: CCCP, exogenous cytochrome c
Experimental: as §1, with “protein. Approximately 16% of the total cytochrome c could be released by digitonin without substantial respiratory inhibition (no interference of digitonin with the IM) (Table 1), a percentage in agreement with the pool of cytochrome c estimated to reside in the IMS (Bernardi and Azzone, 1981). Therefore, tBID must deploy additional events to enable the release of nearly all cytochrome c from the mitochondrion.” for “protein.”

Bak −/− mitochondria = test: Digitonin releasable cytochrome c pool; type: biochemical; details: digitonin concentration that does not interfere with IM function (80 pmol × mg protein^−1, 5 mins)
mitochondria [3] = test: Mitochondrial swelling by side scatter at 545 nm; type: biochemical, Balb/cJ mice; details: 10 μM 14mer
Experimental: tBID was evaluated to determine if it causes any swelling or depolarization that might reflect an opening of the PTP. Swelling of 0.5 mg/ml mitochondria incubated in EB was monitored by changes in side scatter at 545±2.5 nm using LS-50B spectrofluorimeter equipped with magnetic stirring at 25° C. Membrane potential changes of 0.5 mg/ml mitochondria incubated in experimental buffer were monitored from the dequenching of a 0.3 μM Rhodamine 123 (Molecular Probes, OR) solution in a LS-50B spectrofluorimeter at 25° C., using excitation and emission wavelengths set at 503±2.5 nm and 525±5 nm, respectively.
To determine if the BID α6 14mer (SEQ ID NO:1) induced mitochondrial swelling or release of cytochrome c across the mitochondrial outer membrane, mitochondria at 1 mg/ml were incubated in experimental buffer and, where indicated, 20 μM Ca^2+ and 10 μM 14mer were added. Where noted, mitochondria were preincubated with CsA. […] Mitochondria were incubated with 10 μM 14mer in the presence or in the absence of 1 μM CsA. At the indicated time in minutes, mitochondria were pelleted by centrifugation and cytochrome c in the pellet and in the supernatant was determined.

[4] = system: calcein loaded mitochondria; test: Release of matrix-entrapped calcein (transient PTP opening); type: biochemical, Balb/cJ mice; details: 10 μM BID α6 14mer
Experimental: To assess calcein release, mitochondria suspended in IB without BSA were loaded with 10 nmol×mg protein^−1 calcein-AM (Molecular Probes, Eugene, Oreg.) for 20 mins at room temperature in the dark. Following two washes in IB, the calcein loaded mitochondria were resuspended in IB at a final concentration of 10 mg/ml. 0.5 mg/ml calcein loaded mitochondria were incubated in EB and treated as described. After the indicated time, mitochondria were pelleted. Calcein was measured in an LS-50B spectrofluorimeter (Perkin Elmer) with excitation and emission wavelengths set at 488±2.5 nm and 542±2.5 nm, respectively.
After 30 min mitochondria were spun at 14000 g for 3 min at 4 C and the calcein content in the pellet and in the supernatant was determined. […] To determine if a BID α6 mutation variant, BID α6 mutein (SEQ ID NO:7), would inhibit cytochrome c release, His-tag p22 wt BID and the BID α6 mutein were expressed, purified on a Ni^2+ column, and cleaved with caspase 8.
Mitochondria were loaded with calcein and treated with 10 μM BID α6 14mer. Where noted, mitochondria were pretreated with 1 μM CsA. At the indicated time, mitochondria were pelleted by centrifugation and calcein in the pellet and in the supernatant was determined.

BAK = BAK oligomerization (BMH crosslinking, anti-BAK immunoblot); type: biochemical, Balb/cJ mice; details: 10 μM BID α6 14mer, 30 min
Experimental: In lanes 7-8 mitochondria were pretreated with 800 pmol CsA×mg protein^−1 for 3 mins. After the indicated time, DMSO (lanes 1-2) or 10 mM BMH (lanes 3-8) was added, and after another 30 min the crosslinking reaction was quenched (Wei et al., 2001). The mitochondria were subjected to SDS-PAGE and immunoblot with anti BAK antibody. Star, BAK multimers.
To also determine if the BID α6 14mer (SEQ ID NO:1) modulated BAK oligomerization, mitochondria were incubated for 30 min with 10 μM BID α6 14mer in the presence or in the absence of 1 μM CsA. Crosslinking with BMH, SDS-PAGE and anti BAK immunoblotting was carried out.

wt mitochondria = test: Cytochrome b5-dependent NADH oxidation assay; type: biochemical, Balb/cJ mice; details: 10 μM BID α6 14mer, 20 min
Experimental: (d), mitochondria were preincubated for 2 min with 800 pmol CsA×mg protein^−1. (a), no additions. After 15 min, respiratory chain inhibitors were added and after another 2 minutes NADH fluorescence reading started. Arrow, 20 nmol NADH×mg protein^−1. In (e), 200 nmol mersalyl×mg protein was added 1 min before NADH.
In the cytochrome b5-dependent NADH oxidation assay, 1 mg/ml mitochondria were incubated in EB and treated as indicated. 400 pmol CCCP, 2 nmol rotenone and 1 nmol antimycin A×mg protein^−1 were added after the time indicated and the reaction transferred to a cuvette. After 2 min, 10 μM NADH was added and its oxidation monitored as the decrease in NADH fluorescence in a LS50B spectrofluorimeter (Perkin Elmer) set with λex=366 nm and λem=455 nm, with 5 nm slits.

Row | Molecule | Cytochrome c release (% of total) (mitochondria [1]; Digitonin 48 pmol × mg protein^−1, 5 minutes) | Cytochrome c release (% of total) (mitochondria [1]; Digitonin 80 pmol × mg protein^−1, 5 minutes) | Cytochrome c release (% of total) (mitochondria [1]; Digitonin 145 pmol × mg protein^−1, 5 minutes) | total cytochrome c released by digitonin (mitochondria [1]; without substantial respiratory inhibition) | Uncoupled JO2 (mitochondria [2]; Digitonin 48 pmol × mg protein^−1) | Uncoupled JO2 (mitochondria [2]; Digitonin 80 pmol × mg protein^−1) | Uncoupled JO2 (mitochondria [2]; Digitonin 145 pmol × mg protein^−1) | release of total cytochrome c by digitonin (Bak −/− mitochondria) | release of cytochrome c across the mitochondrial outer membrane (mitochondria [1]; 10 μM 14mer) | mitochondrial swelling (mitochondria [3]) | calcein release (onset of transient PT) [4] | BAK oligomerization (BAK) | mobilization of cytochrome c (cytochrome b5-dependent NADH oxidation) (wt mitochondria)
1 | C[C@@H]1CC[C@@]2(OC1)O[C@H]1[C@@H](O)[C@H]3[C@@H]4CC[C@H]5C[C@@H](O[C@@H]6O[C@H](CO)[C@H](O[C@@H]7O[C@H](CO)[C@@H](O)[C@H](O[C@@H]8OC[C@@H](O)[C@H](O)[C@H]8O)[C@H]7O[C@@H]7O[C@H](CO)[C@H](O)[C@H](O[C@@H]8O[C@H](CO)[C@@H](O)[C@H](O)[C@H]8O)[C@H]7O)[C@H](O)[C@H]6O)[C@H](O)C[C@]5(C)[C@H]4CC[C@]3(C)[C@H]1[C@@H]2C [Digitonin] | 10.7 % of total | 16.4 % of total | 26.6 % of total | Approximately 16% | 60 nAt × min^−1 × mg protein^−1 | 60 nAt × min^−1 × mg protein^−1 | 46.7 nAt × min^−1 × mg protein^−1 | 19.2±4.8% | – | – | – | – | –
2 | NH2-XMLXXXXLLAKKVA—COOH [BID α6 14mer, 14 amino acid peptide of the BID α6 helix] | – | – | – | – | – | – | – | – | nor did it trigger the actual release of cytochrome c across the mitochondrial outer membrane; also recorded: does not cause cytochrome c release across the outer membrane | did not induce swelling of mitochondria; also recorded: does not induce mitochondrial swelling | resulted in the efflux of mitochondrial matrix entrapped calcein; also recorded: causes calcein release from mitochondria | did not result in BAK oligomerization; also recorded: does not induce BAK oligomerization | induced the mobilization of cytochrome c; also recorded: induces cytochrome c redistribution
